Laboratory results reported in patent publication US20050130252A1, “Stabilized susceptibility tests of aerobic pathogens” (Wyeth Holdings Corporation, priority 2003, published 2005).

What was measured:
Experiment in all cases: Agar dilution in vitro activity
Assay type in all cases: cell-based
[1] = test system: Enterococcus faecalis GC2267 tet(L) + (M) + (S); conditions: E. faecalis GC2267 tet(L) + (M) + (S)
Method: (§1) The in vitro activities of tigecycline and control antibiotics were determined by the broth microdilution method as recommended by the NCCLS. (National Committee for Clinical Laboratory Standards, 2003. Methods for Dilution Antimicrobial Susceptibility Tests for Bacteria That Grow Aerobically; Approved Standards: M7-A6, Sixth ed, vol. 23., National Committee for Clinical Laboratory Standards Wayne, Pa.) was used for the standard procedures. MBH with 5% lysed horse blood was used for testing S. pneumoniae and Haemophilus Test Medium was used for testing H. influenzae. Oxyrase® (Oxyrase Inc, Mansfield, Ohio) was used according to the manufacturer's instructions by adding 1 ml of Oxyrase® to 50 ml of media. Media age studies were performed by preparing MHB in multiple flasks, then storing the media under various conditions. MICs were usually performed in duplicate on each day of testing. Storage under anaerobic conditions was conducted in an anaerobic chamber (MACS MG 1000, Don Whitley Scientific LTD). The pH of the media was determined by pH meter (Corning 430). A comparison of the in vitro activity of tigecycline by agar and broth dilution methodolgies with and without Oxyrase® against clinical isolates is shown in Table 1.

[2] = test system: Staphylococcus aureus GC1079 tet(K); conditions: S. aureus GC1079 tet(K)
Method: as §1

[3] = test system: Staphylococcus aureus GC1131 Clinical isolate; conditions: S. aureus GC1131
Method: as §1, with “Oxyrase® (Oxyrase Inc, Mansfield, Ohio) was used according to the manufacturer's instructions by adding 1 ml of Oxyrase® to 50 ml of media.” left out

[4] = test system: Escherichia coli GC1073 tet(B) wt; conditions: E. coli GC1073 tet(B) wt
Method: as §1, with “Oxyrase® (Oxyrase Inc, Mansfield, Ohio) was used according to the manufacturer's instructions by adding 1 ml of Oxyrase® to 50 ml of media.” left out

[5] = test system: Escherichia coli GC2270 tet(M); conditions: E. coli GC2270 tet(M)
Method: as §1, with “Oxyrase® (Oxyrase Inc, Mansfield, Ohio) was used according to the manufacturer's instructions by adding 1 ml of Oxyrase® to 50 ml of media.” left out

[6] = test system: Staphylococcus aureus GC4536 Smith MP -In Vivo; conditions: S. aureus GC4536 Smith
Method: as §1, with “Oxyrase® (Oxyrase Inc, Mansfield, Ohio) was used according to the manufacturer's instructions by adding 1 ml of Oxyrase® to 50 ml of media.” left out

[7] = test system: Escherichia coli GC4560 IMP mutant; conditions: E. coli GC4560 IMP mutant
Method: as §1, with “Oxyrase® (Oxyrase Inc, Mansfield, Ohio) was used according to the manufacturer's instructions by adding 1 ml of Oxyrase® to 50 ml of media.” left out

[8] = test system: Staphylococcus aureus GC6467 Clinical - tet(M) + (K); conditions: S. aureus GC6467 tet(M) + (K)
Method: as §1, with “Oxyrase® (Oxyrase Inc, Mansfield, Ohio) was used according to the manufacturer's instructions by adding 1 ml of Oxyrase® to 50 ml of media.” left out

[9] = test system: Staphylococcus aureus GC6466 Clinical - tet(M); conditions: S. aureus GC6466 tet(M)
Method: as §1, with “Oxyrase® (Oxyrase Inc, Mansfield, Ohio) was used according to the manufacturer's instructions by adding 1 ml of Oxyrase® to 50 ml of media.” left out

[10] = test system: Candida albicans GC3066 ATCC Control; conditions: C. albicans GC3066 ATCC Control
Method: as §1, with “Oxyrase® (Oxyrase Inc, Mansfield, Ohio) was used according to the manufacturer's instructions by adding 1 ml of Oxyrase® to 50 ml of media.” left out

[11] = test system: Escherichia coli GC2203 ATCC Control; conditions: E. coli GC2203 ATCC Control
Method: as §1, with “Oxyrase® (Oxyrase Inc, Mansfield, Ohio) was used according to the manufacturer's instructions by adding 1 ml of Oxyrase® to 50 ml of media.” left out

[12] = test system: Enterococcus faecalis GC2242 Vancomycin-Resistant; conditions: E. faecalis GC2242 Vancomycin-Resistant
Method: as §1, with “Oxyrase® (Oxyrase Inc, Mansfield, Ohio) was used according to the manufacturer's instructions by adding 1 ml of Oxyrase® to 50 ml of media.” left out

[13] = test system: Staphylococcus aureus GC2216 ATCC Control; conditions: S. aureus GC2216 ATCC Control
Method: as §1, with “Oxyrase® (Oxyrase Inc, Mansfield, Ohio) was used according to the manufacturer's instructions by adding 1 ml of Oxyrase® to 50 ml of media.” left out

[14] = test system: Enterococcus faecalis GC4555 ATCC Control; conditions: E. faecalis GC4555 ATCC Control
Method: as §1, with “Oxyrase® (Oxyrase Inc, Mansfield, Ohio) was used according to the manufacturer's instructions by adding 1 ml of Oxyrase® to 50 ml of media.” left out

[15] = test system: Escherichia coli GC4559 parent GC4560; conditions: E. coli GC4559
Method: as §1, with “Oxyrase® (Oxyrase Inc, Mansfield, Ohio) was used according to the manufacturer's instructions by adding 1 ml of Oxyrase® to 50 ml of media.” left out

In the case of `CN(C)c1cc(NC(=O)CNC(C)(C)C)c(O)c2c1C[C@H]1C[C@H]3[C@H](N(C)C)C(O)=C(C(N)=O)C(=O)[C@@]3(O)C(O)=C1C2=O` [Tigecycline, tigecycline], the “In Vitro Activity of Tigecycline” value ([1]; Oxyrase (10%)) is reported as 0.12, the “In Vitro Activity of Tigecycline” value ([1]; no Oxyrase) is reported as 0.25 and the “In Vitro Activity of Tigecycline” value ([2]; Oxyrase (10%)) is reported as 0.25. The “In Vitro Activity of Tigecycline” value ([2]; no Oxyrase) was 0.5, the “In Vitro Activity of Tigecycline” value ([3]; Oxyrase (10%)) was 0.25 and the “In Vitro Activity of Tigecycline” value ([3]; no Oxyrase) was 0.25. The “In Vitro Activity of Tigecycline” value ([4]; Oxyrase (10%)) was 0.25, the “In Vitro Activity of Tigecycline” value ([4]; no Oxyrase) was 0.25 and the “In Vitro Activity of Tigecycline” value ([5]; Oxyrase (10%)) was 0.12. The “In Vitro Activity of Tigecycline” value ([5]; no Oxyrase) was 0.25, the “In Vitro Activity of Tigecycline” value ([6]; Oxyrase (10%)) was 0.12 and the “In Vitro Activity of Tigecycline” value ([6]; no Oxyrase) was 0.25. For the same compound, the “In Vitro Activity of Tigecycline” value ([7]; Oxyrase (10%)) was 0.03, the “In Vitro Activity of Tigecycline” value ([7]; no Oxyrase) was 0.03 and the “In Vitro Activity of Tigecycline” value ([8]; Oxyrase (10%)) was 0.5. The “In Vitro Activity of Tigecycline” value ([8]; no Oxyrase) was 1, the “In Vitro Activity of Tigecycline” value ([9]; Oxyrase (10%)) was 0.12 and the “In Vitro Activity of Tigecycline” value ([9]; no Oxyrase) was 0.25. For the same compound, the “In Vitro Activity of Tigecycline” value ([10]; Oxyrase (10%)) was greater than 16, the “In Vitro Activity of Tigecycline” value ([10]; no Oxyrase) was greater than 16 and the “In Vitro Activity of Tigecycline” value ([11]; Oxyrase (10%)) was 0.12. The “In Vitro Activity of Tigecycline” value ([11]; no Oxyrase) was 0.25, the “In Vitro Activity of Tigecycline” value ([12]; Oxyrase (10%)) was 0.12 and the “In Vitro Activity of Tigecycline” value ([12]; no Oxyrase) was 0.12. The “In Vitro Activity of Tigecycline” value ([13]; Oxyrase (10%)) was 0.25, the “In Vitro Activity of Tigecycline” value ([13]; no Oxyrase) was 0.5 and the “In Vitro Activity of Tigecycline” value ([14]; Oxyrase (10%)) was 0.12. For the same compound, the “In Vitro Activity of Tigecycline” value ([14]; no Oxyrase) was 0.12, the “In Vitro Activity of Tigecycline” value ([15]; Oxyrase (10%)) was 0.12 and the “In Vitro Activity of Tigecycline” value ([15]; no Oxyrase) was 0.25.
